Measured values published in patent US20210330611A1, “THERAPY FOR NEUROLOGICAL DISEASES/DISORDERS” (priority 2020, published 2021).
“And” between values parts separate entries of the source, which are not always exact repeats. Equal entries are not always repeated. Structures can show the parent of a compound that is named as a salt. Where two headings read alike, the source gives them in different places.

Key:
Type in all cases: cell-based, rat
[1] = test system: fibrin-induced microglia activation; experiment: Image-based assay of fibrin-induced microglia activation (HTS and dose response); settings: for inhibition at 10 µM: read-out: Fibrin % inhibition
[2] = test system: LPS-induced microglia activation; experiment: Image-based assay of LPS-induced microglia activation (HTS and dose response); settings: for inhibition at 10 µM: read-out: LPS % inhibition
[3] = test system: fibrin- and LPS-induced microglia activation; experiment: cells
[4] = Rattus norvegicus, Microglia, Table 7, read-out: fib_IC50
[5] = Rattus norvegicus, Microglia, Table 7, read-out: LPS_IC50
[6] = Table 7, fib = fibrin, LPS, tox = toxicity
[7] = primary microglia HTS, fibrin stimulation, compounds at 10 μM
[8] = primary microglia HTS, LPS stimulation, compounds at 10 μM
[9] = quadrant by fibrin and LPS inhibition, HTS at 10 μM
[10] = Rattus norvegicus, Microglia, primary microglia HTS, fibrin stimulation, increased cell size (>800 μm^2) as marker of activation
[11] = Rattus norvegicus, Microglia, 48 h, primary microglia HTS, LPS stimulation, increased cell size (>800 μm^2) as marker of activation
[12] = quadrant by fibrin and LPS inhibition in HTS of 1907 compounds
[13] = Rattus norvegicus, Microglia, primary microglia HTS, fibrin stimulation, compounds at 10 μM
[14] = Rattus norvegicus, Microglia, primary microglia HTS, LPS stimulation, compounds at 10 μM
[15] = classification by fibrin and LPS inhibition, HTS at 10 μM
[16] = Rattus norvegicus, Microglia, 48 h

CC(C)NCC(O)COc1cccc2ccccc12 (centres unmarked)
Fibrin % inhibition ([1]; 10 µM): −18%
inhibition at 10 µM ([2]; Rattus norvegicus, Microglia): -5%
Quadrant (FIG. 5b) [3]: Q4

CC(C)CCCCCOC(=O)COc1ccc(Cl)cc1Cl
IC50 [1, 4]: 0.906 µM
IC50 [2, 5]: 1.01 µM
Activity [3, 6]: fib/LPS

Cc1cc(C(C)(C)C)c(O)c(C(C)(C)C)c1
Fibrin % inhibition [1, 7]: −4%
LPS % inhibition [2, 8]: 5%
Quadrant (FIG. 5b) [3, 9]: Q4

O=C(O)c1nc2cc(Cl)c(Cl)cc2nc1O
IC50 [1, 4]: 2.65 µM
IC50 [2, 5]: ≥ 5 µM
Activity [3, 6]: fib/LPS

C[C@H](N)[C@H](O)c1ccccc1.Cl
Fibrin % inhibition [1]: −15%
LPS % inhibition [2]: 7%
Quadrant (FIG. 5b) [3]: Q4

C[C@@H]([C@H](O)c1ccccc1)N(C)C
Fibrin % inhibition [1, 7]: −52%
LPS % inhibition [2, 8]: 7%
Quadrant (FIG. 5b) [3, 9]: Q4

CCCCC(C)(O)C/C=C/[C@H]1[C@H](O)CC(=O)[C@@H]1CCCCCCC(=O)OC (mixture of isomers) [Misoprostol]
inhibition at 10 µM [1, 10]: 13%
inhibition at 10 µM [2, 11]: 32%
Quadrant (FIG. 5b) [3, 12]: Q4

O=c1c(-c2ccccc2)coc2cc(O)cc(O)c12 [5,7-dihydroxyisoflavone]
IC50 [1, 4]: 0.172 µM
IC50 [2, 5]: 0.021 µM
Activity [3, 6]: fib/LPS

CC(=O)OCC(=O)[C@@]1(O)CC[C@H]2[C@@H]3C[C@H](C)C4=CC(=O)C=C[C@]4(C)[C@H]3[C@@H](O)C[C@@]21C [6alpha-methylprednisolone acetate]
fib specificity [1]: 1.0
fib_HS [1]: −0.26
LPS specificity [2]: 1.0
LPS_HS [2]: −0.40
Activity [3]: fib/LPS

C[C@H]1O[C@H](O[C@H]2[C@H](O)[C@@H](O)[C@@H](O[C@H]3[C@H](O)[C@@H](O)C(O)O[C@@H]3CO)O[C@@H]2CO)[C@H](O)[C@@H](O)[C@@H]1N[C@H]1C=C(CO)[C@@H](O)[C@H](O)[C@H]1O (some centres unmarked) [Acarbose]
inhibition at 10 µM [1, 13]: -22%
inhibition at 10 µM [1, 10]: 81%
inhibition at 10 µM [2, 11]: 62%
inhibition at 10 µM [2, 14]: -5%
Quadrant (FIG. 5b) [3, 12]: Q2
Quadrant (FIG. 5b) [3, 9]: Q4

O=C(O)COC(=O)Cc1ccccc1Nc1c(Cl)cccc1Cl [Aceclofenac]
inhibition at 10 µM [1, 13]: -2%
inhibition at 10 µM [2, 14]: 8%
Quadrant (FIG. 5b) [3, 9]: Q4

NCCCC(O)(P(=O)(O)O)P(=O)(O)O [Alendronic acid]
inhibition at 10 µM ([1]; Rattus norvegicus, Microglia): 5%
inhibition at 10 µM ([2]; Rattus norvegicus, Microglia): 18%
Quadrant (FIG. 5b) [3]: Q4

CC(=O)Oc1c(C)c(C)c2c(c1C)CCC(C)(CCCC(C)CCCC(C)CCCC(C)C)O2 (stereo not drawn) [Alpha-tochopheryl Acetate]
Fibrin % inhibition [1, 7]: 22%
LPS % inhibition [2, 8]: 8%
Quadrant (FIG. 5b) [3, 9]: Q4

CCCCc1oc2ccccc2c1C(=O)c1cc(I)c(OCCN(CC)CC)c(I)c1 [Amiodarone]
inhibition at 10 µM ([1]; Rattus norvegicus, Microglia): -4%
inhibition at 10 µM ([2]; Rattus norvegicus, Microglia): 13%
Quadrant (FIG. 5b) [3]: Q4

C/C=C/c1ccc(OC)cc1 [Anethole]
inhibition at 10 µM [1, 13]: -37%
inhibition at 10 µM [2, 14]: 13%
Quadrant (FIG. 5b) [3, 9]: Q4

COc1ccc(C(=O)N2CCCC2=O)cc1 [Aniracetam]
inhibition at 10 µM [1, 13]: 6%
inhibition at 10 µM [2, 14]: 4%
Quadrant (FIG. 5b) [3, 9]: Q4

CN1CCc2cccc3c2[C@H]1Cc1ccc(O)c(O)c1-3 [Apomorphine Hydrochloride]
inhibition at 10 µM ([1]; Rattus norvegicus, Microglia): 11%
inhibition at 10 µM ([2]; Rattus norvegicus, Microglia): -4%
Quadrant (FIG. 5b) [3]: Q4

COC(=O)C1=CCCN(C)C1 [Arecoline]
inhibition at 10 µM [1, 13]: 17%
inhibition at 10 µM [2, 14]: 14%
Quadrant (FIG. 5b) [3, 9]: Q4

O=C1O[C@H]([C@@H](O)CO)C(O)=C1O [Ascorbic Acid]
inhibition at 10 µM [1, 13]: -8%
inhibition at 10 µM [2, 14]: 12%
Quadrant (FIG. 5b) [3, 9]: Q4

CNCC[C@@H](Oc1ccccc1C)c1ccccc1 [Atomoxetine Hydrochloride]
inhibition at 10 µM [1, 13]: 15%
inhibition at 10 µM [2, 14]: 7%
Quadrant (FIG. 5b) [3, 9]: Q4

CC(C)c1c(C(=O)Nc2ccccc2)c(-c2ccccc2)c(-c2ccc(F)cc2)n1CC[C@@H](O)C[C@@H](O)CC(=O)[O-].CC(C)c1c(C(=O)Nc2ccccc2)c(-c2ccccc2)c(-c2ccc(F)cc2)n1CC[C@@H](O)C[C@@H](O)CC(=O)[O-].[Ca+2] [Atorvastatin calcium, reference compound]
IC50 ([1]; read-out: Fibrin IC50): 0.6 µM
IC50 ([1]; read-out: Fibrin IC50 (uM) (Suppl. Table 7)): 0.6 µM
LPS % inhibition [2]: 88%
IC50 ([2]; read-out: LPS IC50): 3 µM
IC50 ([2]; read-out: LPS IC50 (uM) (Suppl. Table 7)): 3 µM
Cherry-picked Hit (Suppl. Table 7) [3]: HIT (key: HIT: Hits were defined as molecules that exhibited greater than 50% inhibition of either fibrin or LPS activation)
Hit [3]: HIT (key: HIT: Hits were defined as molecules that exhibited greater than 50% inhibition of either fibrin or LPS activation)
Quadrant (FIG. 5b) [3]: Q2

CN1[C@@H]2CC[C@H]1C[C@@H](OC(=O)C(CO)c1ccccc1)C2 (some centres unmarked) [Atropine]
inhibition at 10 µM ([1]; Rattus norvegicus, Microglia): -21%
inhibition at 10 µM ([2]; Rattus norvegicus, Microglia): 4%

O=C(CCCN1CCN(c2ccccn2)CC1)c1ccc(F)cc1 [Azaperone]
inhibition at 10 µM [1, 13]: -4%
inhibition at 10 µM [2, 14]: 12%
Quadrant (FIG. 5b) [3, 9]: Q4

CC1=C(/C=C/C(C)=C/C=C/C(C)=C/C=C/C=C(C)/C=C/C=C(C)/C=C/C2=C(C)CCCC2(C)C)C(C)(C)CCC1 [Beta-carotene]
inhibition at 10 µM ([1]; Rattus norvegicus, Microglia): -15%
inhibition at 10 µM ([2]; Rattus norvegicus, Microglia): -3%
Quadrant (FIG. 5b) [3]: Q4

COc1ccccc1OCCNCC(O)COc1cccc2[nH]c3ccccc3c12 (centres unmarked) [Carvedilol, Carvedilol Phosphate]
LPS % inhibition ([2]; 10 µM): 15% and 19%
Quadrant (FIG. 5b) [3]: Q4

CC1=C(C(=O)O)N2C(=O)[C@@H](NC(=O)[C@H](N)c3ccccc3)[C@H]2SC1 [Cephalexin]
inhibition at 10 µM ([1]; Rattus norvegicus, Microglia): -1%
inhibition at 10 µM ([2]; Rattus norvegicus, Microglia): 17%
Quadrant (FIG. 5b) [3]: Q4

COCc1c(C(C)C)nc(C(C)C)c(/C=C/[C@@H](O)C[C@@H](O)CC(=O)O)c1-c1ccc(F)cc1 [Cerivastatin, Cerivastatin Na]
Fibrin % inhibition [1]: 103%
LPS % inhibition [2]: 101%
Quadrant (FIG. 5b) [3]: Q2

O=C(O)COCCN1CCN(C(c2ccccc2)c2ccc(Cl)cc2)CC1 (centres unmarked) [Cetirizine]
inhibition at 10 µM ([1]; Rattus norvegicus, Microglia): 5%
inhibition at 10 µM ([2]; Rattus norvegicus, Microglia): 0%
Quadrant (FIG. 5b) [3]: Q4

O=C(O)c1cn(C2CC2)c2cc(N3CCNCC3)c(F)cc2c1=O [Ciprofloxacin]
inhibition at 10 µM ([1]; Rattus norvegicus, Microglia): -30%
inhibition at 10 µM ([2]; Rattus norvegicus, Microglia): 17%

N.N.[Cl][Pt][Cl] [Cisplatin]
Fibrin % inhibition ([1]; primary HTS, 10 μM, fibrin-stimulated primary microglia): −13%
LPS % inhibition ([2]; primary HTS, 10 μM, LPS-stimulated primary microglia): 20%
Quadrant (FIG. 5b) ([3]; primary HTS, 10 μM): Q4

C[C@H]1O[C@@H](O[C@H]2[C@@H](O)C[C@H](O[C@H]3[C@@H](O)C[C@H](O[C@H]4CC[C@@]5(C)[C@H](CC[C@@H]6[C@@H]5C[C@@H](O)[C@]5(C)[C@@H](C7=CC(=O)OC7)CC[C@]65O)C4)O[C@@H]3C)O[C@@H]2C)C[C@H](O)[C@@H]1O [Digoxin]
Quadrant (FIG. 5b) [3]: Q3 and Q4

CC[C@H]1OC(=O)[C@H](C)[C@@H](O[C@H]2C[C@@](C)(OC)[C@@H](O)[C@H](C)O2)[C@H](C)[C@@H](O[C@@H]2O[C@H](C)C[C@H](N(C)C)[C@H]2O)[C@](C)(O)C[C@@H](C)C(=O)[C@H](C)[C@@H](O)[C@]1(C)O [Erythromycin]
inhibition at 10 µM [2, 14]: 20%
LPS % inhibition ([2]; primary microglia HTS, LPS stimulation, compounds at 10 μM, 10 µM): 13%
Quadrant (FIG. 5b) [3, 15]: Q4

C[C@]12CC[C@@H]3c4ccc(O)cc4C[C@@H](CCCCCCCCC[S+]([O-])CCCC(F)(F)C(F)(F)F)[C@H]3[C@@H]1CC[C@@H]2O (some centres unmarked) [Fulvestrant]
inhibition at 10 µM ([2]; Rattus norvegicus, Microglia, 48 h, primary microglia HTS, LPS stimulation, activation = cell size >800 μm2): 15%
Quadrant (FIG. 5b) [3, 12]: Q4

CN1[C@@H]2CC[C@H]1C[C@@H](OC(=O)[C@H](CO)c1ccccc1)C2 [Hyoscyamine]
inhibition at 10 µM [2, 16]: 13%

CN1CCCCC1CCN1c2ccccc2Sc2ccc([S+](C)[O-])cc21 (centres unmarked) [Mesoridazine]
inhibition at 10 µM ([1]; Rattus norvegicus, Microglia): -5%

OCc1cccnc1 [Nicotinyl Alcohol Tartrate]
inhibition at 10 µM [1, 10]: -5%
inhibition at 10 µM [2, 11]: 4%

C#CC1(O)CC[C@H]2[C@@H]3CCC4=CC(=O)CC[C@@H]4[C@H]3CC[C@@]21CC (some centres unmarked) [Norgestrel, Levonorgestrel]
Fibrin % inhibition ([1]; primary microglia HTS, fibrin stimulation, increased cell size (>800 μm^2) as marker of activation): 13%
LPS % inhibition ([2]; primary microglia HTS, LPS stimulation, increased cell size (>800 μm^2) as marker of activation): 14%

CCn1cc(C(=O)O)c(=O)c2cc(F)c(N3CCN(C)CC3)cc21 [Pefloxacin]
inhibition at 10 µM [2, 16]: 21%

CN1CCN(CCCN2c3ccccc3Sc3ccc(Cl)cc32)CC1 [Prochlorperazine dimaleate, reference compound]
Activity [3]: fib/LPS
Quadrant (FIG. 5b) [3]: Q4

Cc1cc2nc3c(=O)[nH]c(=O)nc-3n(C[C@H](O)[C@H](O)[C@H](O)CO)c2cc1C [Riboflavin]
Quadrant (FIG. 5b) [3]: Q4

CC(=O)S[C@@H]1CC2=CC(=O)CC[C@]2(C)[C@H]2CC[C@@]3(C)[C@@H](CC[C@@]34CCC(=O)O4)[C@H]12 [Spironolactone]
inhibition at 10 µM [2, 16]: 20%
Quadrant (FIG. 5b) [3]: Q4

Cc1cn([C@H]2C[C@H](N=[N+]=[N-])[C@@H](CO)O2)c(=O)[nH]c1=O [Zidovudine]
LPS % inhibition ([2]; 10 µM): 13%
inhibition at 10 µM ([2]; Rattus norvegicus, Microglia): 9%
Quadrant (FIG. 5b) [3]: Q4

Dimenhydrinate
Quadrant (FIG. 5b) [3, 15]: Q4
